Data taken from PubChem BioAssay (NCI).
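Cultured in 96-well plates, cells were exposed to test compound for 48 hours across five concentrations. Definition used: TGI = concentration required for complete inhibition of growth.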

Tests used:
Experiment in all cases: inhibition of tumour cell growth, NCI panel, 48 h
CCRF-CEM leukemia = test system: CCRF-CEM leukemia
HCT-116 colon = test system: HCT-116 colon
M14 melanoma = test system: M14 melanoma
M19-MEL melanoma = test system: M19-MEL melanoma
MCF7 breast = test system: MCF7 breast
NCI-H23 lung = test system: NCI-H23 lung
NCI-H522 lung = test system: NCI-H522 lung
OVCAR-3 ovarian = test system: OVCAR-3 ovarian
OVCAR-8 ovarian = test system: OVCAR-8 ovarian
PC-3 prostate = test system: PC-3 prostate
SF-539 CNS = test system: SF-539 CNS
TK-10 renal = test system: TK-10 renal
XF 498 CNS = test system: XF 498 CNS

SMILES | TGI (CCRF-CEM leukemia) [µM] | TGI (HCT-116 colon) [µM] | TGI (M14 melanoma) [µM] | TGI (M19-MEL melanoma) [µM] | TGI (MCF7 breast) [µM] | TGI (NCI-H23 lung) [µM] | TGI (NCI-H522 lung) [µM] | TGI (OVCAR-3 ovarian) [µM] | TGI (OVCAR-8 ovarian) [µM] | TGI (PC-3 prostate) [µM] | TGI (SF-539 CNS) [µM] | TGI (TK-10 renal) [µM] | TGI (XF 498 CNS) [µM]
Cc1ccc(C(=O)NCc2ccccc2)cc1N=NN(C)C | > 100 | > 100 | > 100 | > 100 | > 100 | > 100 | 90.1 | > 100 | > 100 | > 100 | > 100 | > 100 | 
CC(=O)O[C@@]12CO[C@@H]1CC(O)[C@@]1(C)C(=O)[C@H](O)C3=C(C)C(O)C[C@@](O)(C(OC(=O)c4ccccc4)C12)C3(C)C (some centres undefined) | > 100 | 19.2 | > 48.5 | > 100 | > 100 | > 41.9 |  |  | > 74.9 | > 100 | 2.16 | > 100 | > 100
CN1CCc2c(sc3[nH]c(=S)[nH]c(=S)c23)C1 | > 100 | > 100 | > 100 |  | > 100 | > 100 | > 100 | > 100 | > 100 | > 100 | > 100 | > 100 | 
NCCCN(CCCN)CCc1cn(C(=O)c2ccccc2)cn1 | 14.8 | > 51.2 | 18.1 |  | 11.4 | 36.7 | 64.9 | 7.75 | 56.3 | 21.5 | 35.3 | 20.6 | 
CN1CCCOC(c2ccc(Cl)cc2)O1 (centres undefined) | > 100 | > 100 | > 100 |  | > 100 | > 100 | > 100 | > 100 | > 100 | > 100 | > 100 | > 100 | 
CC1CC(Nc2ccc(Br)cc2)N(C(=O)c2ccc(Br)cc2)O1 (centres undefined) | > 10 | > 10 | > 10 |  | > 10 | > 10 | > 10 | > 10 | > 10 | > 10 | > 10 | > 10 | 
CCOC(=O)CCC(NC(=O)c1ccc(NCc2ccc3nc(-c4ccccc4)c(Cl)nc3c2)cc1)C(=O)OCC (centres undefined) | > 100 | > 100 | 39.5 | 43.2 |  | > 100 | 57.8 | 59.2 |  |  | > 100 | > 100 | 20.4
CCOC(=O)C(Cc1ccc(O)cc1)Nc1nc(=O)c2c(=O)oc(Cl)cc2o1 (centres undefined) | 23.4 | 20.9 | 15.1 |  | 17.6 | 40.5 | 19.9 | 20 | 14 | 21.4 | 21.9 | 20.6 | 
Cc1ccc2c(c1)CC1(Cc3cccc(C)c3C1=O)C2=O (centres undefined) | > 100 | > 100 | > 100 |  | > 10 | > 100 | > 100 | > 100 | > 100 | > 100 | > 100 | > 100 | 
Cn1nnnc1SC(F)(F)c1nc2ccccc2o1 | > 100 | > 100 | > 100 |  | > 100 | > 100 | > 100 | > 100 | > 100 | > 100 | > 100 | > 100 | 
Cc1ccc(NC(=O)C(=O)C2C(=O)NC(=O)NC2=O)cc1C | > 100 | > 100 | > 100 | > 100 |  | > 100 | > 100 | > 100 | > 100 |  | > 100 | > 100 | > 100
COc1ccc(C2c3cc4c(cc3OC(N3CCOCC3)C2C)OCO4)cc1 (centres undefined) | > 78.2 | > 100 | > 89 |  | > 71.5 | > 100 | > 82 | > 86.1 | > 100 | > 100 | 68.6 | > 100 | 
Cc1c2ccc3ccccc3c2c[n+]2ccccc12 | 37.2 | > 83.3 | 37.5 | 15.9 | > 87.3 | 15.3 | 14.7 | 35.4 | 39.6 | > 100 | 43.4 | > 100 | 
CC(=O)O[C@]12CCCCCC1C1(O)C(O)CCCCC12 (some centres undefined) | > 100 |  | > 100 | > 100 |  | > 100 | > 100 |  | > 100 |  |  | > 100 | > 100
O=[N+]([O-])c1c(F)c(F)c2c(c1F)N(CCCCCl)c1ccccc1S2 | 6.35 | 11.2 | 18.2 |  | 11.9 | 21.7 | 12.3 | 19.5 | 11.3 | 12.7 | 31.9 | 32.5 | 
CN(C)CCCNc1ccc2ncn3c4ccc(O)cc4c(=O)c1c23 | 32.6 | 11.2 | 16.4 | 15.3 | 1.27 | 10.7 | 3.16 | 17.6 | 11.7 | 14.4 | 15.7 | 19.8 | 19.6
CCOP(=O)(OCC)/C(C#N)=C/c1ccc(-c2cc(C(F)(F)F)cc(C(F)(F)F)c2)o1 | 34.3 | 26.2 | 23.1 |  | 20 | 31.1 | 24.6 | 21.6 | 32 | 24 | 35.3 | 35.5 | 
CCOC(=O)c1c(OCC)[nH]c(=O)c(C(c2cccs2)c2c(O)c(C(=O)OCC)c(OCC)[nH]c2=O)c1O | > 100 | 45 | 35.6 |  | 53.9 | 82.3 | 27.6 | 30.4 | 41.6 | > 100 | 28.5 | 63.7 | 
Cc1ccc(CSC(N)=Nc2ccccc2)cc1C | > 100 | 32.1 | 41.2 |  | 37.9 | 57 | 35.4 | 44 | 45.9 | 60.5 | 53.1 | 86.7 | 
